{
  "source": "patent US20040163143A1",
  "about": "“Method for efficiently producing transgenic plant using auxin precursor” (NIPPON PAPER INDUSTRIES CO., LTD., priority 2002, published 2004)",
  "key": {"[1]": {"system": "E. globulus hypocotyl sections", "experiment": "E. globulus gene introduction test, vector pIAH6 (ipt + iaaH + GUS), adventitious bud redifferentiation and GUS staining", "assay_type": "cell-based, Eucalyptus globulus", "conditions": "for B/A Redifferentiation ratio / C/A Gene introduction ratio / C/B Selection efficiency: section basis", "protocol": "Using a plasmid pIAH6 as a vector having a GUS gene as a model of a desired gene and an ipt gene and an iaaH gene as selectable marker genes, a transformant was produced by carrying out gene introduction into Eucalyptus globulus (hereinafter referred to as “E. globulus”) by the method of the present invention. Seeds of E. globulus from Chile were sterilized by soaking in 70% ethanol for about 1 minute and then soaking with stirring in a 2% aqueous sodium hypochlorite solution for about 4 hours, washed thoroughly with sterile water, inoculated on an MS agar medium to which 0.5 mg/l zeatin had been added and stored in a refrigerator at 4° C. for 2 days to accelerate germination, and then the germination was carried out by culturing at 25° C. under light conditions of about 10 μmol/m^2/s in light intensity. One to two weeks after the inoculation of the seeds onto the germination medium, hypocotyls were collected by cutting out apical buds, cotyledons and roots of the germinated seedlings, and the hypocotyls were cut into sections of about 5 mm to be used as samples for gene introduction and subjected to the following test. A. tumefaciens EHA105 introduced with the plasmid pIAH6 in the above item I was cultured overnight in the YEB liquid medium and then diluted to OD630 =0.5 with EG basal medium, and the sections of hypocotyl prepared in the above were soaked in the cell suspension. Next, each of the sections after removing excess cell suspension was co-cultured with Agrobacterium on an agar medium (agar 8.5 g/l) prepared by adding 1.0 mg/l zeatin, 0.05 mg/l NAA and 40 mg/l acetosyringone to the EG basal medium, at 25° C. for 3 days in the dark to thereby infect each section with the pIAH6-introduced Agrobacterium. In this case, a modified MS medium having an ammonia nitrogen/nitrate nitrogen concentration ratio of 1:3 (5 mM NH4, 15 mM NO3) was supplemented with 20 g/l sucrose and used as the EG basal medium. The sections after infection culturing were put on an EG basal agar medium (agar 8.5 g/l) supplemented with 500 mg/l ticarcillin and 1 μM or 10 μM of an auxin precursor analogue NAM, and the culturing was continued at 25° C. under light conditions of 30 to 40 μmol/m^2/s in light intensity while sub-culturing at an interval of 2 weeks using the same medium. Among these sections, the quicker ones redifferentiated adventitious buds after about 2 months of the Agrobacterium infection. Three months after the Agrobacterium infection, in order to examine expression of the GUS gene used as a model of the desired gene, the redifferentiated adventitious buds were subjected to a GUS staining test in accordance with the method of Jefferson et al. (Plant Mol. Biol. Rep., 5: 387-405 (1987)), and the degree of formation of desired gene-introduced adventitious buds was judged by examining the number of stained adventitious buds (the number of adventitious buds expressing the desired gene). An E. globulus gene introduction test was carried out in the same manner as in Example 1, except that the hypocotyl sections after the Agrobacterium infection were cultured using the EG basal agar medium (agar 8.5 g/l) supplemented with 500 mg/l ticarcillin and 0 μM, 1 μM or 10 μM NAA as auxin."}, "[2]": {"system": "E. globulus hypocotyl sections", "experiment": "E. globulus gene introduction test, vector pIPT10 (ipt only + GUS), adventitious bud redifferentiation and GUS staining", "assay_type": "cell-based, Eucalyptus globulus", "conditions": "for B/A Redifferentiation ratio / C/A Gene introduction ratio / C/B Selection efficiency: section basis", "protocol": "Seeds of E. globulus from Chile were sterilized by soaking in 70% ethanol for about 1 minute and then soaking with stirring in a 2% aqueous sodium hypochlorite solution for about 4 hours, washed thoroughly with sterile water, inoculated on an MS agar medium to which 0.5 mg/l zeatin had been added and stored in a refrigerator at 4° C. for 2 days to accelerate germination, and then the germination was carried out by culturing at 25° C. under light conditions of about 10 μmol/m^2/s in light intensity. One to two weeks after the inoculation of the seeds onto the germination medium, hypocotyls were collected by cutting out apical buds, cotyledons and roots of the germinated seedlings, and the hypocotyls were cut into sections of about 5 mm to be used as samples for gene introduction and subjected to the following test. A. tumefaciens EHA105 introduced with the plasmid pIAH6 in the above item I was cultured overnight in the YEB liquid medium and then diluted to OD630 =0.5 with EG basal medium, and the sections of hypocotyl prepared in the above were soaked in the cell suspension. Next, each of the sections after removing excess cell suspension was co-cultured with Agrobacterium on an agar medium (agar 8.5 g/l) prepared by adding 1.0 mg/l zeatin, 0.05 mg/l NAA and 40 mg/l acetosyringone to the EG basal medium, at 25° C. for 3 days in the dark to thereby infect each section with the pIAH6-introduced Agrobacterium. In this case, a modified MS medium having an ammonia nitrogen/nitrate nitrogen concentration ratio of 1:3 (5 mM NH4, 15 mM NO3) was supplemented with 20 g/l sucrose and used as the EG basal medium. The sections after infection culturing were put on an EG basal agar medium (agar 8.5 g/l) supplemented with 500 mg/l ticarcillin and 1 μM or 10 μM of an auxin precursor analogue NAM, and the culturing was continued at 25° C. under light conditions of 30 to 40 μmol/m^2/s in light intensity while sub-culturing at an interval of 2 weeks using the same medium. Among these sections, the quicker ones redifferentiated adventitious buds after about 2 months of the Agrobacterium infection. Three months after the Agrobacterium infection, in order to examine expression of the GUS gene used as a model of the desired gene, the redifferentiated adventitious buds were subjected to a GUS staining test in accordance with the method of Jefferson et al. (Plant Mol. Biol. Rep., 5: 387-405 (1987)), and the degree of formation of desired gene-introduced adventitious buds was judged by examining the number of stained adventitious buds (the number of adventitious buds expressing the desired gene). An E. globulus gene introduction test was carried out in the same manner as in Example 1, except that the hypocotyl sections after the Agrobacterium infection were cultured using the EG basal agar medium (agar 8.5 g/l) supplemented with 500 mg/l ticarcillin and 0 μM, 1 μM or 10 μM NAA as auxin. An E. globulus gene introduction test was carried out in the same manner as in Example 1 or Comparative Example 1, except that a plasmid pIPT10 having only the ipt gene as the selectable marker gene was used as the vector. Also, the vector also has the GUS gene as a model of the desired gene. Structure of T-DNA region of the pIPT10 used in this case is shown in FIG. 2, and results of the gene introduction test are shown in Table 3."}, "[3]": {"conditions": "NAA 1 μM in medium, 62 sections tested"}, "[4]": {"conditions": "NAA 10 μM in medium, 40 sections tested"}},
  "data": [
    {"smiles": "O=C(O)Cc1cccc2ccccc12", "note": "[NAA, naphthaleneacetic acid]", "values": [
      {"measurement": "B Adventitious bud differentiated (number of sections)", "setting": "[1]; [3]", "result": "9 number of sections"},
      {"measurement": "C GUS + adventitious bud differentiated (number of sections)", "setting": "[1]; [3]", "result": "2 number of sections"},
      {"measurement": "B/A Redifferentiation ratio", "setting": "[1]; NAA 1 μM in medium", "result": 14.5, "unit": "%"},
      {"measurement": "C/A Gene introduction ratio", "setting": "[1]; NAA 1 μM in medium", "result": 3.2, "unit": "%"},
      {"measurement": "C/B Selection efficiency", "setting": "[1]; NAA 1 μM in medium", "result": 22.2, "unit": "%"},
      {"measurement": "B Adventitious bud differentiated (number of sections)", "setting": "[1]; [4]", "result": "13 number of sections"},
      {"measurement": "C GUS + adventitious bud differentiated (number of sections)", "setting": "[1]; [4]", "result": "1 number of sections"},
      {"measurement": "B/A Redifferentiation ratio", "setting": "[1]; NAA 10 μM in medium", "result": 32.5, "unit": "%"},
      {"measurement": "C/A Gene introduction ratio", "setting": "[1]; NAA 10 μM in medium", "result": 2.5, "unit": "%"},
      {"measurement": "C/B Selection efficiency", "setting": "[1]; NAA 10 μM in medium", "result": 7.7, "unit": "%"},
      {"measurement": "B Adventitious bud differentiated (number of sections)", "setting": "[2]; additive 1 μM in medium", "result": "9 number of sections"},
      {"measurement": "C GUS + adventitious bud differentiated (number of sections)", "setting": "[2]; additive 1 μM in medium", "result": "1 number of sections"},
      {"measurement": "B/A Redifferentiation ratio", "setting": "[2]; additive 1 μM in medium", "result": 20.5, "unit": "%"},
      {"measurement": "C/A Gene introduction ratio", "setting": "[2]; additive 1 μM in medium", "result": 2.3, "unit": "%"},
      {"measurement": "C/B Selection efficiency", "setting": "[2]; additive 1 μM in medium", "result": 11.1, "unit": "%"},
      {"measurement": "B Adventitious bud differentiated (number of sections)", "setting": "[2]; additive 10 μM in medium", "result": "7 number of sections"},
      {"measurement": "C GUS + adventitious bud differentiated (number of sections)", "setting": "[2]; additive 10 μM in medium", "result": "0 number of sections"},
      {"measurement": "B/A Redifferentiation ratio", "setting": "[2]; additive 10 μM in medium", "result": 15.9, "unit": "%"},
      {"measurement": "C/A Gene introduction ratio", "setting": "[2]; additive 10 μM in medium", "result": 0.0, "unit": "%"},
      {"measurement": "C/B Selection efficiency", "setting": "[2]; additive 10 μM in medium", "result": 0, "unit": "%"}
    ]}
  ]
}
